Source: US20110070232A1, “Combination Therapy with an Antitumor Alkaloid” (Pharma Mar, S.A., priority 2008, published 2011)
Read-outs that look alike come from different tables or passages of the source.

Experiments:
Hs746T tumors = assay type: in vivo, mice; details: for % Inhibition: mg/kg/day: PM00104 0.90 IV, 5-FU 50 at DPI 15 and 100 at DPI 22 & 29 IP
Description: Female athymic nude mice (Harlan Sprague Dawley, Madison, Wis.) were utilized for all experiments. Animals were housed in ventilated rack caging with food and water ad libitum. The mice were acclimated for at least 5 days prior to tumor implantation with a tumor cell suspension.
The tumor model used in these studies was Hs746T cell line, which was obtained from the ATCC (Manassas, Va.).
Treatments were initiated on DPI 15.
5-FU was provided as a solution which was further diluted with water for injection.
(§1) Tumor size measurements were recorded twice weekly from the treatment initiation until the termination of the study.
(§2) Mean, standard deviation and standard error of the mean were determined for tumor volume for all animal groups at all assessments. Student's t test was performed on tumor volumes at each measurement day, including at the end of the study, to determine whether there were any statistically significant differences between combination treatment groups and single monotherapy treatment groups.

[1] = system: MIA PaCA-2 human pancreatic carcinoma cell line; assay: IC50 determination, MTS assay, 72 h (Example 3); assay type: cell-based; details: 72 hours of drug exposure
Protocol: (§3) Gemcitabine (Gemzar®) was the agent evaluated in combination with PM00104. The human pancreatic carcinoma cell lines selected for this assay were the following: BxPC-3, PANC-1, MIA PaCA-2, and SW1990 cell lines. BxPC-3 cell line was grown in RPMI 1640 medium supplemented with 10% FBS, 1.5 g/L sodium bicarbonate, 4.5 g/L glucose, 10 mM HEPES, 1 mM sodium pyruvate, and 2 mM L-glutamine. PANC-1 cell line was grown in DMEM supplemented with 10% FBS, 1.5 g/L sodium bicarbonate, 4.5 g/L glucose, and 4 mM L-glutamine. MIA PaCA-2 cell line was grown in DMEM supplemented with 10% FBS, 1.5 g/L sodium bicarbonate, 4.5 g/L glucose, 2.5% Horse Serum, and 2 mM L-glutamine. SW1990 cell line was grown in RPMI 1640 medium supplemented with 10% FBS and 2 mM L-glutamine.
(§4) a. […] It was used the same methodology as those disclosed in Example 1.
(§5) IC50 values were calculated from an average of three assays for each of the test agents.

[2] = system: PANC-1 human pancreatic carcinoma cell line; assay: IC50 determination, MTS assay, 72 h (Example 3); assay type: cell-based; details: 72 hours of drug exposure
Protocol: as §3, §4, §5

[3] = system: BxPC-3 human pancreatic carcinoma cell line; assay: IC50 determination, MTS assay, 72 h (Example 3); assay type: cell-based; details: 72 hours of drug exposure
Protocol: as §3, §4, §5

[4] = system: SW1990 human pancreatic carcinoma cell line; assay: IC50 determination, MTS assay, 72 h (Example 3); assay type: cell-based; details: 72 hours of drug exposure
Protocol: as §3, §4, §5

MRI-H-254 tumors = assay type: in vivo, mice
Protocol: Female athymic nude mice (Harlan Sprague Dawley, Madison, Wis.) were utilized for all experiments. Animals were housed in ventilated rack caging with food and water ad libitum. The mice were acclimated for at least 5 days prior to tumor implantation with tumor fragments. The Vehicle Control group contained 11 mice, groups 2-6 contained 8 mice/group, and the rest of groups contained 9 mice/group.
This cell line was grown and implanted to the animals as described in Example 11.
Tumor measurements were determined as disclosed in Example 4. […] Treatments were initiated on DPI 17.
PM00104 was provided in the form of vials of lyophilized PM00104 powder which was reconstituted with water for injection.
as §1, §2
The definition and criteria for the evaluation of potentiation and the degree of additivity for the combination therapy were the same as those disclose in Example 4.

[5] = system: BT-474 (breast cancer) cell line; assay: IC50 determination, MIT (tetrazolium) assay, 72 h (Example 18); assay type: cell-based; details: Homo sapiens, BT-474, 72 h
Protocol: BT-474 cells were grown in RPMI supplemented with 1% ITS (insulin, transferrin and selenium), 10% Fetal Bovine Serum (FBS), 1% penicillin/streptomycin and 2 mM L-glutamine.
Before plating, cell cultures were trypsinized and cell number estimated using an automated flow cytometer.
Cells were harvested and seeded in 96 well microtiter plates at the appropriate cell density (5,000-10,000 cells) in 150 μL of media and incubated for 24 hours to allow the cells to attach before drug addition.
After the incubation period (72 hours), 50 μL of MIT solution was added to each microtiter well and incubated for further 8 hours at 37° C. The culture medium was then removed and 50 μl, of DMSO were added to dissolve the MIT crystals. Optical densities were read at 540 nm on spectrophotometer microplate reader.
IC50 values were calculated from an average of two to four assays for each of the test agents.

[6] = PM00104 0.9, 5-FU 50 (DPI 15) then 100 (DPI 22 & 29), irinotecan 20, doxorubicin 6 mg/kg/day
[7] = PM00104 0.90 IV, doxorubicin 6 IP, paclitaxel 12.5 IP mg/kg/day (G2, G5, G6, G7, G8)

O=c1[nH]cc(F)c(=O)[nH]1 [5-FU, 5-fluorouracil]
% T/C on day 15 (Hs746T tumors; [6]): 102.3%
% T/C on day 19 (Hs746T tumors; [6]): 96.4%
% T/C on day 22 (Hs746T tumors; [6]): 88.0%
% T/C on day 26 (Hs746T tumors; [6]): 93.4%
% T/C on day 29 (Hs746T tumors; [6]): 94.5%
% T/C on day 33 (Hs746T tumors; [6]): 95.3%
% Inhibition (Hs746T tumors; day 15): −2.3%
% Inhibition (Hs746T tumors; day 19): 3.6%
% Inhibition (Hs746T tumors; day 22): 12.0%
% Inhibition (Hs746T tumors; day 26): 6.6%
% Inhibition (Hs746T tumors; day 29): 5.5%
% Inhibition (Hs746T tumors; day 33): 4.7%

Nc1ccn([C@@H]2O[C@H](CO)[C@@H](O)C2(F)F)c(=O)n1 [Gemcitabine, gemcitabine]
IC50 [1]: 0.079 mg/L
IC50 [2]: 110 mg/L
IC50 [3]: 0.84 mg/L
IC50 [4]: 0.012 mg/L

CC(=O)O[C@H]1C(=O)[C@@]2(C)[C@H]([C@H](OC(=O)c3ccccc3)[C@]3(O)C[C@H](OC(=O)[C@H](O)[C@@H](NC(=O)c4ccccc4)c4ccccc4)C(C)=C1C3(C)C)[C@]1(OC(C)=O)CO[C@@H]1C[C@@H]2O [paclitaxel]
% T/C on day 17 (MRI-H-254 tumors; [7]): 99.5%
% T/C on day 20 (MRI-H-254 tumors; [7]): 86.2%
% T/C on day 24 (MRI-H-254 tumors; [7]): 71.9%
% T/C on day 27 (MRI-H-254 tumors; [7]): 77.2%
% T/C on day 32 (MRI-H-254 tumors; [7]): 67.9%
% T/C on day 35 (MRI-H-254 tumors; [7]): 52.3%
% T/C on day 39 (MRI-H-254 tumors; [7]): 51.7%
% T/C on day 47 (MRI-H-254 tumors; [7]): 69.0%
% Inhibition (MRI-H-254 tumors; day 14, PM00104 0.23, doxorubicin 6, paclitaxel 12.5 mg/kg/day): 0.5%
% Inhibition (MRI-H-254 tumors; day 14, PM00104 0.45, doxorubicin 6, paclitaxel 12.5 mg/kg/day): 0.5%
% Inhibition (MRI-H-254 tumors; day 14, PM00104 0.90, paclitaxel 12.5 mg/kg/day): 0.5%
% Inhibition (MRI-H-254 tumors; day 20, PM00104 0.23, doxorubicin 6, paclitaxel 12.5 mg/kg/day): 13.8%
% Inhibition (MRI-H-254 tumors; day 20, PM00104 0.45, doxorubicin 6, paclitaxel 12.5 mg/kg/day): 13.8%
% Inhibition (MRI-H-254 tumors; day 20, PM00104 0.90, paclitaxel 12.5 mg/kg/day): 13.8%
% Inhibition (MRI-H-254 tumors; day 24, PM00104 0.23, doxorubicin 6, paclitaxel 12.5 mg/kg/day): 28.1%
% Inhibition (MRI-H-254 tumors; day 24, PM00104 0.45, doxorubicin 6, paclitaxel 12.5 mg/kg/day): 28.1%
% Inhibition (MRI-H-254 tumors; day 24, PM00104 0.90, paclitaxel 12.5 mg/kg/day): 28.1%
% Inhibition (MRI-H-254 tumors; day 27, PM00104 0.23, doxorubicin 6, paclitaxel 12.5 mg/kg/day): 22.8%
% Inhibition (MRI-H-254 tumors; day 27, PM00104 0.45, doxorubicin 6, paclitaxel 12.5 mg/kg/day): 22.8%
% Inhibition (MRI-H-254 tumors; day 27, PM00104 0.90, paclitaxel 12.5 mg/kg/day): 22.8%
% Inhibition (MRI-H-254 tumors; day 32, PM00104 0.23, doxorubicin 6, paclitaxel 12.5 mg/kg/day): 32.1%
% Inhibition (MRI-H-254 tumors; day 32, PM00104 0.45, doxorubicin 6, paclitaxel 12.5 mg/kg/day): 32.1%
% Inhibition (MRI-H-254 tumors; day 32, PM00104 0.90, paclitaxel 12.5 mg/kg/day): 32.1%
% Inhibition (MRI-H-254 tumors; day 35, PM00104 0.23, doxorubicin 6, paclitaxel 12.5 mg/kg/day): 47.7%
% Inhibition (MRI-H-254 tumors; day 35, PM00104 0.45, doxorubicin 6, paclitaxel 12.5 mg/kg/day): 47.7%
% Inhibition (MRI-H-254 tumors; day 35, PM00104 0.90, paclitaxel 12.5 mg/kg/day): 47.7%
% Inhibition (MRI-H-254 tumors; day 39, PM00104 0.23, doxorubicin 6, paclitaxel 12.5 mg/kg/day): 48.3%
% Inhibition (MRI-H-254 tumors; day 39, PM00104 0.45, doxorubicin 6, paclitaxel 12.5 mg/kg/day): 48.3%
% Inhibition (MRI-H-254 tumors; day 39, PM00104 0.90, paclitaxel 12.5 mg/kg/day): 48.3%
% Inhibition (MRI-H-254 tumors; day 47, PM00104 0.23, doxorubicin 6, paclitaxel 12.5 mg/kg/day): 31.0%
% Inhibition (MRI-H-254 tumors; day 47, PM00104 0.45, doxorubicin 6, paclitaxel 12.5 mg/kg/day): 31.0%
% Inhibition (MRI-H-254 tumors; day 47, PM00104 0.90, paclitaxel 12.5 mg/kg/day): 31.0%
IC50 [5]: 1.7 nM
